Results: article PMC4292804 (Journal of pharmacokinetics and pharmacodynamics, 2013)
Read-outs that look alike come from different tables or passages of the source.

Columns and labels:
[1] = Mdr1a/b constitutive knockout (KO), mouse, in vivo, iv, 3 mg/kg, 12 h
[2] = both FVB and KO mice; intravenous; cannulated gallbladder; cited from earlier work
ABCB1 [3] = settings: homozygous 1236C > T polymorphism in the ABCB1 gene; cited from earlier work
tubulin [4] = settings: determined for colchicine, used for docetaxel; cited from earlier work
[5] = ref Kemper et al. 46; cited from earlier work
CYP3A4 [6] = settings: cited from earlier work
[7] = Docetaxel pharmacokinetic; settings: 3 mg/kg i.v.
[8] = cited from earlier work
CYP3A4 [9] = settings: cited from earlier work; remark: listed apart in the source
tubulin [10] = settings: higher than paclitaxel; cited from earlier work
[11] = Docetaxel pharmacokinetic; assay type: in vivo, mice; settings: for AUC: FVB, mouse, iv, 3 mg/kg
[12] = PBPK model of docetaxel: simulations and parameter estimation; parameters: species or system mice; settings: for % Difference between observed FVB AUC and predicted FVB AUC / % Difference between observed KO AUC and predicted KO AUC: 100 × (predicted − observed)/observed
CYP3A4 [13] = settings: PBPK model parameter, KO mouse model; scaled from in vitro Vmax of ref 27
ABCB1 [14] = experiment: PBPK model: saturable ABCB1; parameters: species or system mice; settings: value (SD) by parameter estimation, FVB data
[15] = value (SD) by parameter estimation, FVB and KO data

CC(=O)O[C@@]12CO[C@@H]1C[C@H](O)[C@@]1(C)C(=O)[C@H](O)C3=C(C)[C@@H](OC(=O)[C@H](O)[C@@H](NC(=O)OC(C)(C)C)c4ccccc4)C[C@@](O)([C@@H](OC(=O)c4ccccc4)[C@H]21)C3(C)C [docetaxel, Docetaxel]
Unchanged docetaxel recovered in the feces [1]: less than 1.5 % of the administered dose
Unchanged drug recovered in the bile [2]: 3–4 % of the dose
Decrease in docetaxel clearance (ABCB1 [3]): 25%
Tubulin binding capacity, Brain (TB_brn) (tubulin [4]): 10,710 nmol/kg
Tubulin binding capacity, Heart (TB_hrt) (tubulin [4]): 1,970 nmol/kg
Tubulin binding capacity, Intestine (TB_int) (tubulin [4]): 1,080 nmol/kg
Tubulin binding capacity, Kidney (TB_kid) (tubulin [4]): 1,470 nmol/kg
Tubulin binding capacity, Liver (TB_liv) (tubulin [4]): 3,510 nmol/kg
Tubulin binding capacity, Lung (TB_lng) (tubulin [4]): 2,580 nmol/kg
Increase in docetaxel exposure in the brain, KO versus FVB mice [5]: +516%
Vmax for CYP3A4 metabolism of docetaxel to M2 (CYP3A4 [6]; in vitro): 14 pmol/min/mg microsomal protein
Km (CYP3A4 [6]; read-out: Km for CYP3A4 metabolism of docetaxel to M2): 0.6 µM
Increase in docetaxel concentration in the liver of KO versus FVB mice ([7]; 12 h): 59%
Docetaxel plasma concentrations, FVB versus KO mice ([7]; during the study (1–12 h)): did not note differences
Docetaxel tissue concentration, KO versus FVB mice ([7]; lung, kidney, heart, intestine and brain at 2, 4, 8 and 12 h): statistically significant increase
Bound to plasma proteins [8]: 93%
Fraction of docetaxel unbound to plasma proteins (FU) ([8]; unbound fraction in the blood): 0.07
Docetaxel cleared from plasma relative to wild-type mice (CYP3A4 [9]; mice with CYP3A4 expression in only the intestine): 21%
Docetaxel metabolites M1–4 recovered in the small intestine relative to wild-type mice (CYP3A4 [9]; transgenic mice with no CYP3A4 expression in the liver): 13.5%
Binding affinity relative to paclitaxel (tubulin [10]): approximately 1.9 fold
Unchanged docetaxel recovered in the feces ([11]; FVB mice, 12 h, 3 mg/kg i.v.): less than 1.5 % of the administered dose
AUC ([11]; brain): 0.184 µM·h
AUC ([11]; heart): 13 µM·h
AUC ([11]; intestine): 3.21 µM·h
AUC ([11]; kidney): 14.5 µM·h
AUC ([11]; liver): 4.34 µM·h
AUC ([11]; lung): 18.9 µM·h
AUC ([11]; plasma): 0.523 µM·h
FVB tubular reabsorption rate constant (K_RABS_fvb) ([12]; FVB, value (SD) by parameter estimation): 0.02 (0.001) h^−1
KO tubular reabsorption rate constant (K_RABS_ko) ([12]; KO, value (SD) by parameter estimation): 1.8 (0.001) h^−1
% Difference between observed FVB AUC and predicted FVB AUC ([12]; brain): −4.3%
% Difference between observed KO AUC and predicted KO AUC ([12]; brain): +14.8%
% Difference between observed FVB AUC and predicted FVB AUC ([12]; heart): −11.3%
% Difference between observed KO AUC and predicted KO AUC ([12]; heart): +2.9%
First-order liver metabolism rate constant (K_LMET) ([12]; hepatic CYP3A4 metabolism, value (SD) by parameter estimation): 3,664 (1.444) h^−1
First-order FVB intestine metabolism rate constant (K_IMET_fvb) ([12]; intestinal CYP3A4 metabolism, FVB, value (SD) by parameter estimation): 19 (0.008) h^−1
% Difference between observed FVB AUC and predicted FVB AUC ([12]; intestine): −3.1%
% Difference between observed KO AUC and predicted KO AUC ([12]; intestine): +0.2%
% Difference between observed FVB AUC and predicted FVB AUC ([12]; kidney): +6.3%
% Difference between observed KO AUC and predicted KO AUC ([12]; kidney): −0.7%
% Difference between observed FVB AUC and predicted FVB AUC ([12]; liver): −8.6%
% Difference between observed KO AUC and predicted KO AUC ([12]; liver): +3.0%
% Difference between observed FVB AUC and predicted FVB AUC ([12]; lung): −7.9%
% Difference between observed KO AUC and predicted KO AUC ([12]; lung): +5.1%
% Difference between observed FVB AUC and predicted FVB AUC ([12]; plasma): −2.9%
% Difference between observed KO AUC and predicted KO AUC ([12]; plasma): +14.8%
Tubulin binding capacity, Slowly perfused (TB_sp) ([12]; value (SD) by parameter estimation): 521 (0.231) nmol/kg
Partition coefficient FVB intestine:plasma (P_int_fvb) ([12]; value (SD) by parameter estimation, FVB): 195 (0.008) Ratio
Partition coefficient Brain:plasma (P_brn) [12, 15]: 58 (0.013) Ratio
Partition coefficient Heart:plasma (P_hrt) [12, 15]: 990 (0.231) Ratio
Partition coefficient Kidney:plasma (P_kid) [12, 15]: 995 (0.222) Ratio
Partition coefficient Liver:plasma (P_liv) [12, 15]: 7,088 (1.653) Ratio
Partition coefficient Lung:plasma (P_lng) [12, 15]: 2,376 (0.546) Ratio
Partition coefficient Slowly perfused:plasma (P_sp) [12, 15]: 748 (0.174) Ratio
Partition coefficient KO intestine:plasma (P_int_ko) ([12]; value (SD) by parameter estimation, KO): 397 (33.970) Ratio
Saturable KO intestine metabolism Vmax (VMAXM_int_ko) (CYP3A4 [13]): 2,654 nmol/h/kg
PGP transport Brain Vmax (VMAXT_brn) (ABCB1 [14]): 14,581 (3.232) nmol/h/kg
PGP transport Heart Vmax (VMAXT_hrt) (ABCB1 [14]): 14,599 (3.449) nmol/h/kg
PGP transport Kidney Vmax (VMAXT_kid) (ABCB1 [14]): 3,003 (0.012) nmol/h/kg
PGP transport Km (KMT) (ABCB1 [14]): 28 (0.007) nmol/kg
PGP transport Lung Vmax (VMAXT_lng) (ABCB1 [14]): 340,176 (13.151) nmol/h/kg
PGP transport Slowly perfused Vmax (VMAXT_sp) (ABCB1 [14]): 10 (0.002) nmol/h/kg
